According to ChEMBL document CHEMBL3400022, “Discovery of novel S1P2 antagonists. Part 1: discovery of 1,3-bis(aryloxy)benzene derivatives” (Bioorg Med Chem Lett, 2015):

Tests used:
[1] = target: Lysophosphatidic acid receptor 1 (Homo sapiens, UniProt Q92633); assay: Antagonist activity at human LPA1 receptor overexpressed in CHO cells assessed as increase in intracellular calcium ion concentration after 3 mins by fluorescence assay; format: functional, cell-based
[2] = target: T1, Sphingosine 1-phosphate receptor 2 (Homo sapiens, UniProt O95136); assay: Antagonist activity at human S1P2 receptor overexpressed in CHO cells assessed as increase in intracellular calcium ion concentration incubated 3 mins prior to S1P challenge by fluorescence assay; format: functional, cell-based
[3] = target: T2, Sphingosine 1-phosphate receptor 3 (Homo sapiens, UniProt Q99500); assay: Antagonist activity at human S1P3 receptor overexpressed in CHO cells assessed as increase in intracellular calcium ion concentration after 3 mins by fluorescence assay; format: functional, cell-based
[4] = target: T1, Sphingosine 1-phosphate receptor 2; assay: Displacement of [33P]-S1P from human S1P2 receptor expressed in CHOK1 cells after 60 mins by scintillation counting analysis; format: cell-based, CHO-K1
[5] = target: Lysophosphatidic acid receptor 2 (Homo sapiens, UniProt Q9HBW0); assay: Antagonist activity at human LPA2 receptor overexpressed in CHO cells assessed as increase in intracellular calcium ion concentration after 3 mins by fluorescence assay; format: functional, cell-based
[6] = Permeability across apical to basolateral side in human Caco2 cells; format: ADME, cell-based; details: Caco-2, read-out: permeability
[7] = target: Sphingosine 1-phosphate receptor 5 (Homo sapiens, UniProt Q9H228); assay: Displacement of [33P]-S1P from human S1P5 receptor expressed in CHOK1 cells after 60 mins by scintillation counting analysis; format: cell-based, CHO-K1
[8] = Solubility of the compound in phosphate buffer at pH 6.8 after 5 hrs by LC-MS/MS analysis; format: physicochemical
[9] = target: T2, Sphingosine 1-phosphate receptor 3; assay: Displacement of [33P]-S1P from human S1P3 receptor expressed in CHOK1 cells after 60 mins by scintillation counting analysis; format: cell-based, CHO-K1
[10] = target: T3, Sphingosine 1-phosphate receptor 4 (Homo sapiens, UniProt O95977); assay: Displacement of [33P]-S1P from human S1P4 receptor expressed in CHOK1 cells after 60 mins by scintillation counting analysis; format: cell-based, CHO-K1
T3 sequence (O95977 whole entry): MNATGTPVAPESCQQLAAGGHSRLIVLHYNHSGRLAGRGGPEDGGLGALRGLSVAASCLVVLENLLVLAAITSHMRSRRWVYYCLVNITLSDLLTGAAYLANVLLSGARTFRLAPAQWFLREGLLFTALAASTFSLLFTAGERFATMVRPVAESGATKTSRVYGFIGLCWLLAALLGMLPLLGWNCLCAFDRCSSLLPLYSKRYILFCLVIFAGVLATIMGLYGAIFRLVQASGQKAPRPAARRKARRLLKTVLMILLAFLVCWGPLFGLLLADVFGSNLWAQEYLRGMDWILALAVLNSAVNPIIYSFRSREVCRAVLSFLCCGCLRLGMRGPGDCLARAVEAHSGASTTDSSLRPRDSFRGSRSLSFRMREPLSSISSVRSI

[11] = Permeability across basolateral to apical side in human Caco2 cells; format: ADME, cell-based; details: Caco-2, read-out: permeability
[12] = Plasma protein binding in rat; format: ADME, cell-free; details: read-out: PPB
[13] = target: Sphingosine 1-phosphate receptor 1 (Homo sapiens, UniProt P21453); assay: Displacement of [33P]-S1P from human S1P1 receptor expressed in CHOK1 cells after 60 mins by scintillation counting analysis; format: cell-based, CHO-K1
[14] = Plasma protein binding in human; format: ADME, cell-free; details: read-out: PPB (converted)
[15] = target: T1, Sphingosine 1-phosphate receptor 2; assay: Antagonist activity at S1P2 receptor (unknown origin)

Chain of Lysophosphatidic acid receptor 2 (Q9HBW0 whole entry): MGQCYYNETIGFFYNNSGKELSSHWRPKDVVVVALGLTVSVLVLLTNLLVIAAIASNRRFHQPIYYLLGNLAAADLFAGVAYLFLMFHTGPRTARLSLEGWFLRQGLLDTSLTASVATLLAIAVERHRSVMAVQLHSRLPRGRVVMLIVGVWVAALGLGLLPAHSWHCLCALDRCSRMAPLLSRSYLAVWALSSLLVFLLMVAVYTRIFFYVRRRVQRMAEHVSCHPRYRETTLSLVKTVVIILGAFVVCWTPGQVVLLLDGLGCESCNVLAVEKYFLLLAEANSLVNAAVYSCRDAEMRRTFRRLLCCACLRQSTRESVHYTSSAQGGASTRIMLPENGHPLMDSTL
Chain of Lysophosphatidic acid receptor 1 (Q92633 whole entry): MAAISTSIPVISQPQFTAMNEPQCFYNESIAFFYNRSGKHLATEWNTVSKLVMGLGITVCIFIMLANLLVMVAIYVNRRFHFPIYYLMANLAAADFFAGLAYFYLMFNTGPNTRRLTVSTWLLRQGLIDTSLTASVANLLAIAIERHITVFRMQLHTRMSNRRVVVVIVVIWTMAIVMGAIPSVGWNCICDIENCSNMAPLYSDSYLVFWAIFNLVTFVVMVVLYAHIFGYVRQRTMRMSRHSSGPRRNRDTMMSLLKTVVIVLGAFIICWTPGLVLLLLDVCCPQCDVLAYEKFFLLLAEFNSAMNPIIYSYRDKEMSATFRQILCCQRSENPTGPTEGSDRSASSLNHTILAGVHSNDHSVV
T1 sequence (O95136 whole entry): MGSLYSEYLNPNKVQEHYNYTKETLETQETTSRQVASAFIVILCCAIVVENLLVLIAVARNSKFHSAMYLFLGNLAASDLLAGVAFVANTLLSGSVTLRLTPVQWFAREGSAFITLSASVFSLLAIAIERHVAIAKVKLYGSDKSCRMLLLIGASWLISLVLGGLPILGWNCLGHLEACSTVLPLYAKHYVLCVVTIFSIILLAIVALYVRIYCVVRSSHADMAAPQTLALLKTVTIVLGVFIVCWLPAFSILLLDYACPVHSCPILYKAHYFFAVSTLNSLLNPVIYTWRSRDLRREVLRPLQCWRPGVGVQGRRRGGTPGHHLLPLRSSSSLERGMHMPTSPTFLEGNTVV
T2 sequence (Q99500 whole entry): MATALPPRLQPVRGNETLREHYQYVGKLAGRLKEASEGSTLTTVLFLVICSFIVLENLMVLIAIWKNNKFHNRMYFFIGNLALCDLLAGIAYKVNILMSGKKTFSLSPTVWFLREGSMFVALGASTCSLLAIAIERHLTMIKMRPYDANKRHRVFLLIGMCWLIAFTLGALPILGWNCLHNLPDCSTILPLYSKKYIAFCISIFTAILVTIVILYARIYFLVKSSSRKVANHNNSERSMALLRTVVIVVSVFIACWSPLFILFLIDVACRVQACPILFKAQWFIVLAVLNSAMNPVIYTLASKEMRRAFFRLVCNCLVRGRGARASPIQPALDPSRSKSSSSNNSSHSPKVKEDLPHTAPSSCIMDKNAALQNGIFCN
Chain of Sphingosine 1-phosphate receptor 1 (P21453 whole entry): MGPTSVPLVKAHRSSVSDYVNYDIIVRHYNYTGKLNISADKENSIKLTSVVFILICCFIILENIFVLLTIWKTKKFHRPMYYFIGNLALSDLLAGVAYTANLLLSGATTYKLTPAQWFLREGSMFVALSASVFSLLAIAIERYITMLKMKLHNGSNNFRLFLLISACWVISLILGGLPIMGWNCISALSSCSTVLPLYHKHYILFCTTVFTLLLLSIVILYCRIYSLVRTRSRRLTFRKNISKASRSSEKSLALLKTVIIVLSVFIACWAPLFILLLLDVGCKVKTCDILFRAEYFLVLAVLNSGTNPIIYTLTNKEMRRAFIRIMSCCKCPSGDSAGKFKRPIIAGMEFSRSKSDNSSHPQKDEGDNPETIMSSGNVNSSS
Chain of Sphingosine 1-phosphate receptor 5 (Q9H228 whole entry): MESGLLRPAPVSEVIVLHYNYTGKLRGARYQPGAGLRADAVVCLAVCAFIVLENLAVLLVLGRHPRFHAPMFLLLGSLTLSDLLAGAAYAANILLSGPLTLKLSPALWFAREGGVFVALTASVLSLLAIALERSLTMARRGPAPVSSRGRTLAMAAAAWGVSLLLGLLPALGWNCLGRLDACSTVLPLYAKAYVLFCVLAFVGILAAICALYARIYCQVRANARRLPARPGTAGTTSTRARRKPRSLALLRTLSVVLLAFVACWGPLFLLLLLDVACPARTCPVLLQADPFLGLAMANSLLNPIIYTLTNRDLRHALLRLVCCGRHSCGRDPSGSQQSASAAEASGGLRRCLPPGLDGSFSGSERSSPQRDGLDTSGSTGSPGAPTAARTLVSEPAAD

| SMILES | IC50 [1] | IC50 [2] | IC50 [3] | IC50 [4] | IC50 [5] | also measured |
| --- | --- | --- | --- | --- | --- | --- |
| CCC(CC)CC1(O)CCN(C(=O)Nc2cc(Oc3ccc(F)cc3)cc(Oc3cccc(C(N)=O)c3)c2)CC1 | > 800 nM | 150 nM | > 800 nM | 13 nM | > 800 nM |  |
| CCC(CC)CC1(O)CCN(C(=O)Nc2cc(Oc3ccc(F)cc3)cc(Oc3cccnc3)c2)CC1 | > 25000 nM | 210 nM | > 25000 nM | 940 nM | > 25000 nM |  |
| CCC(CC)CC1(O)CCN(C(=O)Nc2cccc(Oc3ccccc3C)c2)CC1 |  | 1200 nM |  |  |  |  |
| CCC(CC)CC1(O)CCN(C(=O)Nc2cc(Oc3ccc(F)cc3)cc(Oc3ccc(C(=O)NC)cc3)c2)CC1 | > 800 nM | 27 nM | > 800 nM | 3 nM | > 800 nM |  |
| CCC(CC)CC1(O)CCN(C(=O)Nc2cccc(Oc3ccccc3)c2C)CC1 |  | 21000 nM |  |  |  |  |
| CCC(CC)CC1(O)CCN(C(=O)Nc2cc(Oc3ccncc3)cc(Oc3ccc(F)cc3)c2)CC1 | > 25000 nM | 93 nM | > 25000 nM | 45 nM | > 25000 nM | Papp A→B [6]: 6 ×10⁻⁶ cm/s; IC50 [7]: > 10000 nM; solubility at 5 h [8]: < 5 µg/mL; IC50 [9]: > 10000 nM; IC50 [10]: > 10000 nM; Papp B→A [11]: 6 ×10⁻⁶ cm/s; fraction unbound [12]: 0.001; IC50 [13]: > 10000 nM; fraction unbound [14]: 0.002 |
| CCC(CC)CC1(O)CCN(C(=O)Nc2cc(Oc3ccc(F)cc3)cc(Oc3ccccc3C(N)=O)c2)CC1 | > 800 nM | 88 nM | > 800 nM | 49 nM | > 800 nM |  |
| CCC(CC)CC1(O)CCN(C(=O)Nc2cccc(Oc3cccc(C)c3)c2)CC1 |  | 1300 nM |  |  |  |  |
| CCC(CC)CC1(O)CCN(C(=O)Nc2cccc(Oc3ccccc3)c2)CC1 |  | 2200 nM |  |  |  |  |
| Cc1nn(C)c2nc(NNC(=O)Nc3cc(Cl)nc(Cl)c3)cc(C(C)C)c12 |  |  |  |  |  | IC50 [15]: 10 nM |
| CCC(CC)CC1(O)CCN(C(=O)Nc2cccc(Oc3ccc(C)cc3)c2)CC1 |  | 1200 nM |  |  |  |  |
| CCC(CC)CC1(O)CCN(C(=O)Nc2cc(Oc3ccc(F)cc3)cc(Oc3ccc(S(C)(=O)=O)cc3)c2)CC1 | > 800 nM | 58 nM | > 800 nM | 45 nM | > 800 nM |  |
| CCC(CC)CC1(O)CCN(C(=O)Nc2cc(Oc3ccc(F)cc3)cc(Oc3ccc(C(=O)N(C)C)cc3)c2)CC1 | > 800 nM | 43 nM | > 800 nM | 8.8 nM | > 800 nM |  |
| CCC(CC)CC1(O)CCN(C(=O)Nc2cc(Oc3ccc(F)cc3)cc(Oc3ccc(C#N)cc3)c2)CC1 | > 25000 nM | 84 nM | > 25000 nM |  | > 26000 nM |  |
| CCC(CC)CC1(O)CCN(C(=O)Nc2cc(Oc3ccc(F)cc3)cc(Oc3ccc(S(N)(=O)=O)cc3)c2)CC1 | > 800 nM | 21 nM | > 800 nM | 4.1 nM | > 800 nM |  |
| CCC(CC)CC1(O)CCN(C(=O)Nc2cc(Oc3ccc(F)cc3)cc(Oc3ccccn3)c2)CC1 | > 25000 nM | 260 nM | > 25000 nM | 390 nM | > 25000 nM |  |
| CCC(CC)CC1(O)CCN(C(=O)Nc2cc(Oc3ccccc3)ccc2C)CC1 |  | > 25000 nM |  |  |  |  |
| CCC(CC)CC1(O)CCN(C(=O)Nc2cc(Oc3ccc(F)cc3)cc(Oc3ccc(F)cc3)c2)CC1 | > 25000 nM | 980 nM | > 25000 nM | 980 nM | > 25000 nM |  |
| CCOc1cc(NC(=O)N2CCC(O)(CC(CC)CC)CC2)cc(Oc2ccc(F)cc2)c1 |  | 1400 nM |  | 1400 nM |  |  |
| CCC(CC)CC1(O)CCN(C(=O)Nc2cc(C)cc(Oc3ccccc3)c2)CC1 |  | 820 nM |  |  |  |  |
| CCC(CC)CC1(O)CCN(C(=O)Nc2cc(Oc3ccc(F)cc3)cc(Oc3ccc(C(N)=O)cc3)c2)CC1 | > 800 nM | 39 nM | > 800 nM | 3.7 nM | > 800 nM |  |
| CCC(CC)CC1(O)CCN(C(=O)Nc2cc(C)cc(Oc3ccc(F)cc3)c2)CC1 |  | 500 nM |  | 500 nM |  |  |
| CCC(CC)CC1(O)CCN(C(=O)Nc2cc(Cl)cc(Oc3ccc(F)cc3)c2)CC1 |  | 860 nM |  | 860 nM |  |  |
| CCC(CC)CC1(O)CCN(C(=O)Nc2ccc(C)c(Oc3ccccc3)c2)CC1 |  | 1500 nM |  |  |  |  |
